Consider 1 compound from patent publication US4233309A, “Novel 1-substituted-3-acylpyrrole derivatives, platelet aggregation inhibitors containing them, as active ingredients, and processes for production of said derivatives” (Teijin Limited, priority 1977, dated 1980).

Converted amounts (≈) assume the structure as drawn. Where two headings read alike, the source gives them in different places.

For assay [1], the system named is platelet aggregation (platelet-rich plasmas (PRP) of guinea pigs). Description: Activity of inhibiting platelet aggregation in vitro, guinea pig PRP, sodium arachidonate as aggregating agent (Table 1). It counts as cell-based, Hartley-strain male guinea pigs. The note with it: Cavia porcellus, sodium arachidonate 0.03 mM final, 37° C., final concentration, read-out: IC50 (minimum concentration of drug which showed a percent inhibition of more than 50%). As to the method:
Some 1-substituted-3-acylpyrrole derivatives and other drugs were tested for platelet aggregation inhibiting activities in vitro using platelet-rich plasmas (PRP) of man and guinea pigs. The results are shown as minimum concentration of drugs which inhibit more than 50% of platelet aggregation induced by several aggregating agents.
In experiments with PRP of guinea pigs, sodium arachidonate (final concentration 0.03 mM) was used as an aggregating agent. In experiments with human PRP, sodium arachidonate (final concentration 0.1 mM), collagan suspension (final concentration 10 μg/ml), epinephrine solution (final concentration 20 μg/ml; for secondary aggregation), an epinephrine solution (final concentration 2 μg/ml; for primary aggregation) and ADP (final concentration 5 μM) were used as aggregating agents.
In an experiment with guinea pig PRP, citrated blood (containing 0.38% sodium citrate as a final concentration) was withdrawn by cardiac puncture from Hartley-strain male guinea pigs having a body weight of 350 to 600 g. The citrated blood was centrifuged at 1,000 rpm for 10 minutes at room temperature, and the supernatant platelet suspension (PRP) was separated.
The PRP was stored at room temperature, and used as soon as possible. Those which had been stored for more than 4 hours after preparation were not used.
For each test, a drug is dissolved in dimethylsulfoxide to a concentration of 10 mg/ml, and diluted with physiological saline to form 1 ml each of solutions having a concentration of 2500 μg/ml, 1000 μg/ml, 750 μg/ml, 500 μg/ml, 250 μg/ml and 100 μg/ml. A compound having a free carboxylic acid as a residue such as indomethacine and Ibprofen was dissolved in 0.1 M NaHCO3 to form a sodium salt solution having a concentration of 10 mg/ml. Then, the solution was diluted with physiological saline in the same way as above to form a test drug solution.
Arachidonic acid (99% pure, a product of Sigma Co., Ltd.) was dissolved in 0.1 M NaHCO3, and a 3.3 mM solution of sodium arachidonate was prepared. The solution was diluted with physiological saline to a concentration of 1 mM and used in the experiments. The 3.3 mM solution was stored in a refrigerator as a stock solution, and the 1 mM solution was newly prepared from the stock solution every time it was used.
Physiological saline (50 μl) and 50 μl of the aggregating agent solution were added to 400 μl of PRP which had been pre-warmed and stirred at 37° C. in a quvett set in a holder of an aggregometer. Platelet aggregation was thus initiated, and the change of light transmittance through a stirred platelet suspension was recorded for 3 minutes by a recorder joined to the aggregometer. An increase in transmittance after 3 minutes (T0) was used as a parameter of the rate of platelet aggregation in control experiments.
To 400 μl of PRP in a quvett was added 50 μl of a test drug solution. The mixture was pre-incubated and stirred for 2 minutes at 37° C. Then 50 μl of the aggregating agent was added to drug containing PRP and again aggregation responses were recorded as increases in light transmittance after 3 minutes (T1) in the same way as in (1) above. Percent inhibition was calculated from the formula [formula]
For the above in vitro test for the inhibition of platelet aggregation, reference may be had to H. M. Davis, J. Phyllis, K. Paul and W. Terry: Thromb. Res. 11, 217-226 (1977) and R. E. Anderson and J. G. Foulks: Thromb. Haemos. 36, 343-359 (1976).

The subject of assay [2] is platelet aggregation (guinea pig PRP, extra vivo). Kind of assay: Inhibitory effect of compounds on platelet aggregation in extra vivo (Table 4). The arrangement: species or system Hartley-strain guinea pigs. The note with it: Cavia porcellus, 100 mg/kg PO, 1 h after administration. How it is done:
The effect of the compounds shown in Table 4 on platelet aggregation was assessed using guinea pig in extra vivo.
Each of the test compounds was dissolved in propylene glycol so that its concentration became 100 mg/ml (dosage corresponded to 100 mg/kg) and 30 mg/ml (dosage corresponded to 30 mg/kg). The drug solution was administered either orally or subcutaneously to Hartley-strain guinea pigs (3 per group) having a body weight of 300 to 350 g. As a control, propylene glycol was administered. One hour after the administration, citrated blood was taken out by cardiac puncture, and centrifuged to obtain PRP (see Example 67).
In the case of oral administration, the animals had been fasted overnight.
Into a quvett set in a holder of an aggregometer and prewarmed at 37° C. with stirring, was put 450 μl of the above PRP, and then 50 μl of an aggregating agent was added. The aggregation curve was recorded for an additional 3 minutes, and an increase in light transmittance through PRP after 3 minutes (TB) was recorded (see Example 67). As a control, an increase of transmittance of PRP taken from a guinea pig group administered with propylene glycol alone (TA) was recorded in the same way above. The percent inhibitions were calculated in accordance with the following equation. [formula]
As the aggregating agent, sodium arachidonate (a final concentraton of 0.03 mM) and a collagen suspension (a final concentration of 5 μg/ml) were used.
The percent inhibitions in the above table are averages of three guinea pigs. For details of the above extra vivo test about inhibition of platelet aggregation, the literature references described in Example 67 may be referred to.

Assay [3] relates to carrageenan edema. Description: Antiinflammatory activity (carrageenan edema of rat paw, Table 5). The note with it: 100 mg/kg orally, 3 h after 1% carrageenan. In kind it is in vivo, Sprangue-Dawley (SD) male rats. How it is done:
Sprangue-Dawley (SD) male rats with a body weight of 160 to 180 g, four in each group, were used. The volume of the left leg was measured, and each of the test compounds shown in Table 5 (100 mg/kg dissolved in polyethylene glycol so as to provide a volume of 2 ml/kg) was orally administered. One hour later, 0.1 ml of 1% carrageenan (dissolved in physiological saline) as an inflammation-inducing substance was subcutaneously injected to the paw of the left hind leg. A control group was orally administered with 2 ml/kg of polyethylene glycol. As a positive control, 25 mg/kg of Ibprofen was similarly administered. Three hours after the injection of 1% carrageenan, the volume of the left leg was measured, and the ratio of edema was calculated from the volume before the administration of the carrageenan. The percent inhibition of edema in comparison with the control group was determined.

In assay [4] the test system is platelet aggregation (guinea pig PRP, extra vivo). Kind of assay: Inhibitory effect of compounds on platelet aggregation in extra vivo (Table 4). The arrangement: species or system Hartley-strain guinea pigs. The note with it: Cavia porcellus, 10 mg/kg SC, 1 h after administration.
Where [5] appears, read: collagen 5 μg/ml, read-out: Percent inhibition of platelet aggregation, collagen.
Where [6] appears, read: sodium arachidonate 0.03 mM, read-out: Percent inhibition of platelet aggregation, sodium arachidonate.

The inhibition is the share of the control response that was lost under treatment. In the case of `Cc1cc(C(=O)c2ccccc2)c(C)n1CC(C)O` (stereo not drawn) [Compound 102, 2-(3-benzoyl-2,5-dimethylpyrrol-1-yl)-1-methylethanol], the IC50 in assay [1] was found to be 5 µg/mL (≈ 19.4 µM). The inhibition at 100 mg/kg was 29 to 55% in assay [2] (setting [5]) and 54 to 89% in assay [2] (setting [6]). For the same compound, the “Percent inhibition of edema” value in assay [3] was 8%. Besides, the values for the inhibition at 10 mg/kg in assay [4] (setting [5]) and in assay [4] (setting [6]) were 79% and 99%, respectively.
